In patent US20130053430A1, “MODULATION OF CETP EXPRESSION” (Isis Pharmaceuticals, Inc., priority 2010, published 2013):
Strand notation (5' to 3'): a small letter for the sugar, then the base; units joined by * are phosphorothioate-linked, units joined directly phosphodiester-linked; [ ] holds rarer units or linkages, { } end groups; capitals alone tell only the bases. e = 2'-O-(2-methoxyethyl) (MOE); [5mC] = 5-methylcytosine; d = 2'-deoxy (DNA)

Tests used:
human CETP mRNA [1] = experiment: Antisense inhibition of human CETP mRNA in SW872 liposarcoma cells (Example 1); format: cell-based; details: 150 nM antisense oligonucleotide, lipofectin, ~24 hours, relative to untreated control cells
Experimental: Antisense oligonucleotides targeted to a CETP nucleic acid were tested for their effect on CETP mRNA transcript in vitro. Cultured SW872 liposarcoma cells at a density of 50,000 cells per well in a 24-well plate were transfected using lipofectin reagent with 150 nM antisense oligonucleotide. After approximately 24 hours, RNA was isolated from the cells and CETP mRNA levels were measured by quantitative real-time PCR. A human primer probe set (forward sequence […], designated herein as SEQ ID NO: 38; reverse sequence GGCTCACGCCTTTGCTGTT, designated herein as SEQ ID NO: 39; probe sequence […], designated herein as SEQ ID NO: 40) was used to quantitate CETP mRNA. CETP mRNA transcript levels were adjusted according to total RNA content, as measured by the house-keeping gene, GAPDH mRNA levels. GAPDH was measured using a primer probe set with the sequence as set forth in SEQ ID NOs: 10, 11, 13. Results are presented as percent inhibition of CETP, relative to untreated control cells.
The antisense oligonucleotides in Table 3 are 5-10-5 gapmers, where the gap segment comprises ten 2′-deoxynucleosides and each wing segment comprises five 2′-MOE nucleosides. Each nucleotide in the 5′ wing segment and each nucleotide in the 3′ wing segment has a 2′-MOE modification. The internucleoside linkages throughout each gapmer are phosphorothioate (P═S) linkages. All cytosine residues throughout each gapmer are 5-methylcytosines. ‘Target start site’ indicates the 5′-most nucleotide to which the antisense oligonucleotide is targeted. ‘Target stop site’ indicates the 3′-most nucleotide to which the antisense oligonucleotide is targeted. All the antisense oligonucleotides listed in Table 3 target human CETP mRNA, designated herein as SEQ ID NO: 1 (GENBANK Accession No. M30185.1).

human CETP mRNA [2] = experiment: Antisense inhibition of human CETP mRNA in primary hepatocytes from huCETP transgenic mice (Example 4); format: cell-based, mouse; details: cytofectin, ~24 hours
Experimental: Transgenic mice expressing human CETP, controlled by its natural flanking region, increase expression of this gene in response to hypercholesterolemia (Jiang, X. C. et al., J. Clin. Invest. 1992. 90: 1290-1295). These mice were utilized for the following studies. Antisense oligonucleotides targeted to a CETP nucleic acid and described in Example 1 were tested for their effect on CETP mRNA transcript in vitro. Cultured primary hepatocytes from huCETP transgenic mice, at a density of 17,500 cells per well in a 96-well plate, were transfected using cytofectin reagent with 100 nM or 200 nM antisense oligonucleotide. After approximately 24 hours, RNA was isolated from the cells and CETP mRNA levels were measured by quantitative real-time PCR. CETP mRNA transcript levels were adjusted according to total RNA content, as measured by the house-keeping gene, GAPDH mRNA levels. Results are presented in Table 6 as percent inhibition of CETP, relative to untreated control cells.

[3] = Plasma cholesterol and triglyceride levels in huApoB/huCETP/mLDLr mouse model (Example 7); format: in vivo, mice; details: huApoB+/−huCETP+/−mLDLr+/− mice (Groups B-E), ASO 25 mg/kg s.c. twice/week
Source text: The huApoB^+/−huCETP^+/−mLDLr^+/− mice were divided into five groups of 5-7 mice each. […] The saline-injected group served as the control group to which oligonucleotide-treated groups were compared. […] This group served a negative control for the effects of the antisense oligonucleotides against CETP. The groups are further described in Table 27, and are designated letters A-F, by which they will be referred from henceforth.
HDL and LDL cholesterol were individually measured by HPLC. Triglyceride levels were measured on weeks 0, 3 and 6 with the use of a commercially available triglyceride kit (DCL Triglyceride Reagent; Diagnostic Chemicals Ltd.).

Compound | % inhibition (human CETP mRNA [1]) [%] | Percent inhibition of human CETP mRNA (human CETP mRNA [2]; 100 nM) [%] | Percent inhibition of human CETP mRNA (human CETP mRNA [2]; 200 nM) [%] | further results
ISIS 349466: 5-10-5 MOE gapmer CCACAGACACGTTCTGAATG (e[5mC]*e[5mC]*eA*e[5mC]*eA*dG*dA*d[5mC]*dA*d[5mC]*dG*dT*dT*d[5mC]*dT*eG*eA*eA*eT*eG) | 15 | 57 | 81 | 
ISIS 349463: 5-10-5 MOE gapmer CTGCTGGCGATGGACAAGTG (e[5mC]*eT*eG*e[5mC]*eT*dG*dG*d[5mC]*dG*dA*dT*dG*dG*dA*d[5mC]*eA*eA*eG*eT*eG) | 77 | 58 | 62 | 
ISIS 349480: 5-10-5 MOE gapmer TGTCTCCATCTGAAAGGATG (eT*eG*eT*e[5mC]*eT*d[5mC]*d[5mC]*dA*dT*d[5mC]*dT*dG*dA*dA*dA*eG*eG*eA*eT*eG) | 74 | 46 | 40 | 
ISIS 349481: 5-10-5 MOE gapmer AGGTAGGAGGCTGTGATGAC (eA*eG*eG*eT*eA*dG*dG*dA*dG*dG*d[5mC]*dT*dG*dT*dG*eA*eT*eG*eA*e[5mC]) | 66 | 79 | 65 | 
ISIS 349447: 5-10-5 MOE gapmer TATGTATGTCCGCCCAGCCC (eT*eA*eT*eG*eT*dA*dT*dG*dT*d[5mC]*d[5mC]*dG*d[5mC]*d[5mC]*d[5mC]*eA*eG*e[5mC]*e[5mC]*e[5mC]) | 15 | 57 | 28 | 
ISIS 349498: 5-10-5 MOE gapmer CTGGACGGTAGTCACGATAT (e[5mC]*eT*eG*eG*eA*d[5mC]*dG*dG*dT*dA*dG*dT*d[5mC]*dA*d[5mC]*eG*eA*eT*eA*eT) | 80 | 76 | 84 | 
ISIS 349487: 5-10-5 MOE gapmer CCCATCAGGCTGAGCATGAG (e[5mC]*e[5mC]*e[5mC]*eA*eT*d[5mC]*dA*dG*dG*d[5mC]*dT*dG*dA*dG*d[5mC]*eA*eT*eG*eA*eG) | 73 | 84 | 68 | 
ISIS 349510: 5-10-5 MOE gapmer TCTAGCTCAAGCTCTGGAGG (eT*e[5mC]*eT*eA*eG*d[5mC]*dT*d[5mC]*dA*dA*dG*d[5mC]*dT*d[5mC]*dT*eG*eG*eA*eG*eG) | 64 | 65 | 88 | 
ISIS 349502: 5-10-5 MOE gapmer GAAGCTCTGGATGGACTCGG (eG*eA*eA*eG*e[5mC]*dT*d[5mC]*dT*dG*dG*dA*dT*dG*dG*dA*e[5mC]*eT*e[5mC]*eG*eG) | 43 | 49 | 61 | 
ISIS 349503: 5-10-5 MOE gapmer GCGGTGATCATTGACTGCAG (eG*e[5mC]*eG*eG*eT*dG*dA*dT*d[5mC]*dA*dT*dT*dG*dA*d[5mC]*eT*eG*e[5mC]*eA*eG) | 81 | 83 | 89 | 
ISIS 349475: 5-10-5 MOE gapmer GCTTGATCCACCCAGGCTCT (eG*e[5mC]*eT*eT*eG*dA*dT*d[5mC]*d[5mC]*dA*d[5mC]*d[5mC]*d[5mC]*dA*dG*eG*e[5mC]*eT*e[5mC]*eT) | 5 | 0 | 0 | 
ISIS 349514: 5-10-5 MOE gapmer ACGCTGGAGGAGACACCAGG (eA*e[5mC]*eG*e[5mC]*eT*dG*dG*dA*dG*dG*dA*dG*dA*d[5mC]*dA*e[5mC]*e[5mC]*eA*eG*eG) | 71 | 84 | 92 | 
O=C(O)c1cccnc1 [Nicotinic acid, nicotinic acid, reference compound] |  |  |  | % HDL/total cholesterol ([3]; Week 0): 23%; HDL cholesterol levels ([3]; Week 0): 45 mg/dL; LDL cholesterol levels ([3]; Week 0): 122 mg/dL; Total cholesterol levels ([3]; Week 0): 195 mg/dL; Triglyceride levels ([3]; Week 0): 134 mg/dL; % HDL/total cholesterol ([3]; Week 3): 34%; HDL cholesterol levels ([3]; Week 3): 57 mg/dL; LDL cholesterol levels ([3]; Week 3): 102 mg/dL; Total cholesterol levels ([3]; Week 3): 169 mg/dL; Triglyceride levels ([3]; Week 3): 108 mg/dL; % HDL/total cholesterol ([3]; Week 6): 39%; HDL cholesterol levels ([3]; Week 6): 65 mg/dL; LDL cholesterol levels ([3]; Week 6): 102 mg/dL; Total cholesterol levels ([3]; Week 6): 170 mg/dL; Triglyceride levels ([3]; Week 6): 138 mg/dL
ISIS 349452: 5-10-5 MOE gapmer CAGGACTGTGGCAGCCAGCA (e[5mC]*eA*eG*eG*eA*d[5mC]*dT*dG*dT*dG*dG*d[5mC]*dA*dG*d[5mC]*e[5mC]*eA*eG*e[5mC]*eA) | 75 | 60 | 51 | 
ISIS 349446: 5-10-5 MOE gapmer GGAACATGAGGCTCTTCCGG (eG*eG*eA*eA*e[5mC]*dA*dT*dG*dA*dG*dG*d[5mC]*dT*d[5mC]*dT*eT*e[5mC]*e[5mC]*eG*eG) | 0 | 34 | 36 | 
ISIS 349451: 5-10-5 MOE gapmer GCAGCCAGCATGGTTATCAG (eG*e[5mC]*eA*eG*e[5mC]*d[5mC]*dA*dG*d[5mC]*dA*dT*dG*dG*dT*dT*eA*eT*e[5mC]*eA*eG) | 23 | 42 | 54 | 
ISIS 349479: 5-10-5 MOE gapmer CTGGCAGCCCTTGTCTGGAC (e[5mC]*eT*eG*eG*e[5mC]*dA*dG*d[5mC]*d[5mC]*d[5mC]*dT*dT*dG*dT*d[5mC]*eT*eG*eG*eA*e[5mC]) | 67 | 80 | 66 | 
ISIS 349470: 5-10-5 MOE gapmer GAGGTCAATGGCAGAGTCGA (antisense eG*eA*eG*eG*eT*d[5mC]*dA*dA*dT*dG*dG*d[5mC]*dA*dG*dA*eG*eT*e[5mC]*eG*eA) | 59 | 64 | 49 | 
ISIS 349453: 5-10-5 MOE gapmer GCATTGCCCAGCAGGGCCAG (eG*e[5mC]*eA*eT*eT*dG*d[5mC]*d[5mC]*d[5mC]*dA*dG*d[5mC]*dA*dG*dG*eG*e[5mC]*e[5mC]*eA*eG) | 45 | 2 | 26 | 
ISIS 349507: 5-10-5 MOE gapmer TGATGATGTCGAAGAGGCTC (eT*eG*eA*eT*eG*dA*dT*dG*dT*d[5mC]*dG*dA*dA*dG*dA*eG*eG*e[5mC]*eT*e[5mC]) | 19 | 71 | 73 | 
ISIS 349464: 5-10-5 MOE gapmer CTTCCACCAGCTCCACCTGG (e[5mC]*eT*eT*e[5mC]*e[5mC]*dA*d[5mC]*d[5mC]*dA*dG*d[5mC]*dT*d[5mC]*d[5mC]*dA*e[5mC]*e[5mC]*eT*eG*eG) | 50 | 8 | 56 | 
ISIS 349488: 5-10-5 MOE gapmer GCACTGCCTTGAACTCGTCT (eG*e[5mC]*eA*e[5mC]*eT*dG*d[5mC]*d[5mC]*dT*dT*dG*dA*dA*d[5mC]*dT*e[5mC]*eG*eT*e[5mC]*eT) | 47 | 77 | 87 | 
ISIS 133837: 5-10-5 MOE gapmer TCCACCAGCAGGTGCTCAGG (eT*e[5mC]*e[5mC]*eA*e[5mC]*d[5mC]*dA*dG*d[5mC]*dA*dG*dG*dT*dG*d[5mC]*eT*e[5mC]*eA*eG*eG) | 70 |  |  | 
